Where “and” joins values, the source holds several entries; their conditions need not be identical. Identical values can stand only once.
How the values were obtained:
U937 cells = assay: Flow cytometry, Siglec-Fc pre-complexed with Strep-Tactin, streptavidin or anti-human IgG1; type: cell-based; conditions: for Binding: Suppl Fig 4b
Description: (§1) Strep-Tactin-AF647 (0.55 μg/mL, 0.57 pmol), streptavidin (Biolegend), or anti-human igG1 (Biolegend) was added to Siglec supernatant (50 μL) or purified Siglec and allowed to sit at 4 °C for 15 min. After, the pre-complexed solution was added to cells in a 96-well U-bottom plate for 30 min at 4 °C. After, 200 μL of flow buffer (HBSS, 0.1% BSA, 5 mM EDTA) was added and the plate was spun down at 300 rcf for 5 min. The cells were resuspended in 200 μL of flow buffer and processed through the flow cytometer.
(§2) Flow cytometry was performed on a BD LSRFortessa™ X-20 cell analyzer using BD FACSDiva Software Version 8.0.1 and data was processed using FlowJo LLC. Version 9.9.6 and Graphpad Prism 8. The live, single cell populations were gated out with two gates to obtain the median fluorescence intensity (MFI), which indicates binding of the Siglec-Fc-secondary complex to the cell surface. Control cells that were incubated with Strep-Tactin-AF647 (0.55 μg/mL, 0.57 pmol) was used to determine the baseline fluorescence. Number of cells (# cells) plotted indicates percentage of max (% max).

A549 cells = assay: Flow cytometry, pre-complexed Siglec-Fc binding; type: cell-based; conditions: Strep-Tactin-AF647, replicates
Description: as §1, §2

HEK293T cells = assay: Flow cytometry, pre-complexed Siglec-Fc binding; type: cell-based
Description: as §1, §2

HuH7 cells = assay: Flow cytometry, pre-complexed Siglec-Fc binding; type: cell-based; conditions: Strep-Tactin-AF647, replicates
Description: as §1, §2

Jurkat cells = assay: Flow cytometry, pre-complexed Siglec-Fc binding; type: cell-based; conditions: Strep-Tactin-AF647, replicates
Description: as §1, §2

K562 cells = assay: Flow cytometry, pre-complexed Siglec-Fc binding; type: cell-based; conditions: Strep-Tactin-AF647, replicates
Description: as §1, §2

BT549 = assay: Flow cytometry, pre-complexed Siglec-Fc binding to breast cancer cell line; type: cell-based; conditions: Strep-Tactin-AF647, replicates
Description: as §1, §2

HS578T = assay: as above; type: cell-based; conditions: Strep-Tactin-AF647, replicates
Description: as §1, §2

MCF7 = assay: as above; type: cell-based; conditions: Strep-Tactin-AF647, replicates
Description: as §1, §2

MDA-MB-231 = assay: as above; type: cell-based; conditions: Strep-Tactin-AF647, replicates
Description: as §1, §2

MDA-MB-468 = assay: as above; type: cell-based; conditions: Strep-Tactin-AF647, replicates
Description: as §1, §2

T47D = assay: as above; type: cell-based; conditions: Strep-Tactin-AF647, replicates
Description: as §1, §2

ZR-75-1 = assay: as above; type: cell-based; conditions: Strep-Tactin-AF647, replicates
Description: as §1, §2

basophils (CCR3+) = assay: Siglec ligands on peripheral blood immune cells, flow cytometry; type: cell-based, human; parameters: key: median fluorescence intensity (MFI) of Siglec-Fc complex binding; conditions: replicate values
Description: (§3) Siglec supernatant (50 μL) or purified Siglec was incubated with cells in a 96-well U-bottom plate for 30 min at 4 °C. Following the incubation, 200 μL of flow buffer (HBSS, 0.1% BSA, 5 mM EDTA) was added and the plate was spun down at 300 rcf for 5 min. Strep-Tactin-AF647 (0.55 μg/mL, 50 μL, 0.57 pmol), streptavidin (Biolegend), or anti-human IgG1 (Biolegend) was added to the cells and incubated for 30 min at 4 °C. After, 200 μL of flow buffer (HBSS, 0.1% BSA, 5 mM EDTA) was added and the plate was spun down at 300 rcf for 5 min. The cells were resuspended in 200 μL of flow buffer and processed through the flow cytometer.
as §1
(§4) For human splenocytes, the sample was homogenized in media through a 40 µm filter (Corning) under sterile conditions. Samples were centrifuged at 300 rcf for 5 min. The resulting pellet from the spleen sample and whole human blood were treated with RBC lysis buffer (7 min) and centrifuged at 300 rcf and the RBC lysis was repeated twice more until no RBC remained in the pellet. […]
as §2, with “Version 9.9.6 and Graphpad Prism 8.” left out, “Number of cells (# cells) plotted indicates percentage of max (% max).” left out

eosinophils (Siglec-8+) = assay: as above; type: cell-based, human; parameters: key: median fluorescence intensity (MFI) of Siglec-Fc complex binding; conditions: replicate values
Description: as §3, §1, §4
as §2, with “Version 9.9.6 and Graphpad Prism 8.” left out, “Number of cells (# cells) plotted indicates percentage of max (% max).” left out

monocytes (CD14+) = assay: as above; type: cell-based, human; parameters: key: median fluorescence intensity (MFI) of Siglec-Fc complex binding; conditions: replicate values
Description: as §3, §1, §4
as §2, with “Version 9.9.6 and Graphpad Prism 8.” left out, “Number of cells (# cells) plotted indicates percentage of max (% max).” left out

B-cells (CD19+) = assay: as above; type: cell-based, human; conditions: replicate values
Description: (§5) For human splenocytes, the sample was homogenized in media through a 40 µm filter (Corning) under sterile conditions. Samples were centrifuged at 300 rcf for 5 min. The resulting pellet from the spleen sample and whole human blood were treated with RBC lysis buffer (7 min) and centrifuged at 300 rcf and the RBC lysis was repeated twice more until no RBC remained in the pellet. Samples were treated with human Fc-receptor blocking agent (TruStain FX, Biolegend) in flow buffer (HBSS, 0.1% BSA, 5 mM EDTA). For analysis, the following cocktail was used: hSig8 (PerCP/Cy5.5, clone 7C9, Biolegend cat. no. 347108, 1:200), hCD123 (PE/Cy7, clone 6H6, Biolegend cat. no. 306010, 1:200), hCD19 (PE, clone SJ25C1, Biolegend cat. no. 363004, 1:200), hCD3 (FITC, BD Pharmingen cat. no. 555332, 1:50), hCD14 (BV605, clone M5E2, BD Horizon cat. no. 564056, 1:200), hCD15 (BUV395, clone HI98, BD Horizon cat. no. 563872, 1:200), hCD56 (BV510, clone NCAM16.2, BD Horizon cat. no. 563041, 1:200). For human peripheral blood samples, we additionally used hHLA-DR (APC-Cy7, clone L243, Biolegend cat. no. 307618, 1:200). Pre-complexed Siglec-Fc/Strep-Tactin-AF647 (described above) was added to the antibody cocktail, added to cells, and allowed to stain at 4 °C for 45 min. The cells were then centrifuged at 300 rcf for 5 min and resuspended in flow buffer containing 1 µg/mL propidium iodide prior to analysis by flow cytometry.
as §2

NK cells (CD56+) = assay: as above; type: cell-based, human; conditions: replicate values
Description: as §5, §2

T-cells (CD3+) = assay: as above; type: cell-based, human; conditions: replicate values
Description: as §5, §2

cDCs (CD123dim/HLA-DR+) = assay: as above; type: cell-based, human; conditions: cDC; replicate values
Description: as §5, §2

neutrophils (CD15+) = assay: as above; type: cell-based, human; conditions: replicate values
Description: as §5, §2

pDCs (CD123high/HLA-DR+) = assay: as above; type: cell-based, human; conditions: pDC; replicate values
Description: as §5, §2

[1] = system: neutrophils (CD15+), human splenocytes; assay: Siglec-Fc (CD22-Fc V1/V2, with or without Fc receptor block) binding to splenocytes, flow cytometry; type: cell-based; conditions: Suppl Fig 12; three replicate columns
Description: as §4, with “pellet. Samples were treated with human Fc-receptor blocking agent (TruStain FX, Biolegend) in flow buffer (HBSS, 0.1% BSA, 5 mM EDTA).” for “pellet.”
as §2, with “Version 9.9.6 and Graphpad Prism 8.” left out, “Number of cells (# cells) plotted indicates percentage of max (% max).” left out

[2] = system: B-cells (CD19+), human splenocytes; assay: Siglec-Fc binding to splenocytes, flow cytometry; type: cell-based; conditions: Suppl Fig 12; three replicate columns
Description: as §5, §2

[3] = system: NK cells (CD56+), human splenocytes; assay: Siglec-Fc binding to splenocytes, flow cytometry; type: cell-based; conditions: Suppl Fig 12; three replicate columns
Description: as §5, §2

[4] = system: T-cells (CD3+), human splenocytes; assay: Siglec-Fc binding to splenocytes, flow cytometry; type: cell-based; conditions: Suppl Fig 12; three replicate columns
Description: as §5, §2

[5] = system: monocytes (CD14+), human splenocytes; assay: Siglec-Fc binding to splenocytes, flow cytometry; type: cell-based; conditions: Suppl Fig 12; three replicate columns
Description: as §5, §2

[6] = system: K562 cells treated with Neuraminidase A; assay: Pre-complexed Siglec-Fc binding with or without Neu-A pretreatment; type: cell-based; conditions: Suppl Fig 7a
Description: as §1, §2
K562 cells were incubated with Neuraminidase A at 37 °C for 30 min with shaking every 5 min. Cells were then added to a 96-well U-bottom plate and incubated with pre-complexed Strep-Tactin-AF647/Siglec, as described above.

CMAS−/− HEK293 cells = assay: Pre-complexed Siglec-Fc binding to sialic acid-deficient cells; type: cell-based; conditions: Suppl Fig 7b; HEK CMASKO
Description: Custom crRNA (IDT) was designed to target human CMAS ([…]) and ST6Gal1 ([…]). Cells were seeded at 500,000 cells per well 1 day prior to transfection in a 6-well tissue culture plate. For one well of a 6-well plate, 20 pmol of Cas9 nuclease (IDT), 20 pmol of ATTO-550 labeled crRNA:tracrRNA (IDT) duplex, 8 μL Cas9 Plus reagent (IDT), and 16 μL CRISPRMAX reagent (Thermo Fisher) in 600 μL Opti-MEM medium (Gibco). One day after transfection, cells were removed from the plate by trypsin digestion, washed, resuspended in 300 μl of cell sorting medium (HBSS, 10% FBS, 1 mM EDTA), and stored on ice until sorting. Cells were sorted within the University of Alberta Flow Cytometry Core. The top 5% bright dyes stained with ATTO-550 were sorted into three 96-well plates containing regular culture medium at one cell per well. […]
as §2, with “Version 9.9.6 and Graphpad Prism 8.” left out, “Number of cells (# cells) plotted indicates percentage of max (% max).” left out

Strep-tag II = conditions: cited from earlier work

Substance: Sig-1-Fc R116A
- Binding (U937 cells; Amount of Siglec 3.75 ug/mL): 54.5 and 53.7 and 57.1
- Binding (U937 cells; Amount of Siglec 7.5 ug/mL): 57.9 and 62.1 and 64.6
- Binding (U937 cells; Amount of Siglec 15 ug/mL): 67.9 and 72.2 and 70.4
- Binding (U937 cells; Amount of Siglec 30 ug/mL): 133 and 128 and 148
- Binding (U937 cells; Amount of Siglec 60 ug/mL): 157 and 165 and 148

Substance: Sig-8 R128A: Siglec-8-Fc essential arginine mutant
- binding of pre-complexed Siglec-Fc (MFI) (U937 cells; U937, Strep-Tactin-AF647, replicates, Fig. 2): 94.6 and 90.4 and 92.5
- binding of pre-complexed Siglec-Fc (MFI) (A549 cells): 123 and 130 and 127
- binding of pre-complexed Siglec-Fc (MFI) (HEK293T cells; HEK, Strep-Tactin-AF647, replicates): 70.7 and 73.5 (2×)
- binding of pre-complexed Siglec-Fc (MFI) (HuH7 cells): 92.2 and 88.8 and 95.7
- binding of pre-complexed Siglec-Fc (MFI) (Jurkat cells): 80.5 and 89.6 and 88.9
- binding of pre-complexed Siglec-Fc (MFI) (K562 cells): 133 and 120 and 116
- binding of pre-complexed Siglec-Fc (MFI) (BT549): 101 and 105 (2×)
- binding of pre-complexed Siglec-Fc (MFI) (HS578T): 127 and 117 and 114
- binding of pre-complexed Siglec-Fc (MFI) (MCF7): 129 (2×) and 126
- binding of pre-complexed Siglec-Fc (MFI) (MDA-MB-231): 154 (2×) and 157
- binding of pre-complexed Siglec-Fc (MFI) (MDA-MB-468): 125 and 126 and 131
- binding of pre-complexed Siglec-Fc (MFI) (T47D): 86.1 and 97.6 and 94.1
- binding of pre-complexed Siglec-Fc (MFI) (ZR-75-1): 269 and 266 and 255
- Siglec-Fc binding (Figure 3d) (basophils (CCR3+)): 38.5 and 41.6 and 74.4
- Siglec-Fc binding (Figure 3d) (eosinophils (Siglec-8+)): 25.7 and 26.1 and 45
- Siglec-Fc binding (Figure 3d) (monocytes (CD14+)): 97.7 and 42.1 and 63.5
- Siglec-Fc binding (Figure 3d) (B-cells (CD19+)): 41.1 and 12.5 and 42.1
- Siglec-Fc binding (Figure 3d) (NK cells (CD56+)): 32.1 and 46.5 and 41.2
- Siglec-Fc binding (Figure 3d) (T-cells (CD3+)): 20.5 and 10.3 and 64.2
- Siglec-Fc binding (Figure 3d) (cDCs (CD123dim/HLA-DR+)): 60.4 and -24.4 and 18
- Siglec-Fc binding (Figure 3d) (neutrophils (CD15+)): 38.5 and 12.4 and 5.83
- Siglec-Fc binding (Figure 3d) (pDCs (CD123high/HLA-DR+)): 74.5 and 11.6 and 48.8
- Binding, Neutrophils [1]: -13.8 and -28.2 and -29.9
- Binding, B-cells [2]: 3.45 and -1.72 and -2.87
- Binding, NK [3]: 4.43 and 1.18 and 2.36
- Binding, T-cells [4]: 6.21 and 2.36 and 4.73
- Binding, Monocytes [5]: 15.5 and 9.76 and 8.04

Substance: Siglec-2
- Binding (HEK293T cells; Suppl Fig 7b, HEK WT): 631 and 654 and 721
- Binding ([6]; +Neuraminidase): 88.8 and 91.5 and 90.6
- Binding ([6]; -Neuraminidase): 2128 and 1497 and 1576
- Binding (CMAS−/− HEK293 cells): 86 and 84.2

Substance: Streptavidin: protein binding Strep-tag II with intermediate affinity [reference compound]
- Siglec-1-Fc Binding (U937 cells; Suppl Fig 4a, Streptavidin alone): 150 and 128 and 134
- Kd (Strep-tag II): 72 µM
